Bounds are passed on as bounds.

In series [1] the test system is HCV genotype 1b Con1 strain subgenomic luciferase replicon (Zluc). The series can be described thus: Luciferase replicon assay, genotype 1b. In kind it is cell-based. The conditions noted are these: Hepatitis C virus. On the procedure:
(§1) The HCV luciferase replicon assay measures the ability of a test compound to inhibit HCV replication in cell culture after 3 days of treatment in a human hepatoma cell line (Huh-7) bearing an HCV replicon containing a luciferase-neomycin phosphotransferase fusion gene. The inhibition of HCV replication was measured by quantification of luciferase protein expression. Briefly, Huh-7 cells containing either the HCV genotype 1a H77 strain or genotype 1b Con1 strain subgenomic luciferase replicon (H1a-luc or Zluc, respectively) were grown in DMEM containing glucose, L-glutamine and sodium pyruvate, 10% fetal bovine serum (FBS), 100 IU/mL penicillin, 100 μg/mL streptomycin, 2 mM GlutaMAX, non-essential amino acids and 0.25 (H1a-luc) or 0.5 (Zluc) mg/mL G418. GlutaMAX was obtained from Invitrogen, Corp.; all other media reagents were obtained from Mediatech, Inc. For dose-response testing, the cells were seeded in 96-well plates at 1×10^4 (H1a-luc) or 7.5×10^3 (Zluc) cells/well in a volume of 50 μL, and incubated at 37° C./5% CO2. Three hours after plating, 50 μL of ten 5-fold serial dilutions of compound were added, and cell cultures were incubated at 37° C./5% CO2 for 72 hours. In all cases, Huh-7 cells lacking the HCV replicon served as negative control. To assess luciferase expression, the media/compound was removed from the plates and ONE-glo Luciferase assay reagent (Promega) was added to each well. The assay plates were shaken for 3 minutes at room temperature and luciferase activity for each well was measured with a 1 sec read time on the Victor^3V multilabel counter using a 700 nm cut-off filter (Perkin Elmer). EC50 values were calculated from dose response curves from the resulting best-fit equations determined by Microsoft Excel and XLfit 4.1 software.
A general note: In antiviral work, replicon cells carry a viral genome segment that copies itself.

The subject of series [2] is HCV genotype 4a NS5A within the 1b-replicon. The series can be described thus: Luciferase replicon assay, NS5A-intergenotypic stable cell line genotype 4a. The format is cell-based. The conditions noted are these: Hepatitis C virus, read-out: EC50 4a.
Source text: (§2) The nucleotide sequences of the NS5A region of genotype 2a (GenBank Accession # AB047639), genotype 3a (GenBank Accession #D17763), and genotype 4a (GenBank Accession# DQ418788) were synthesized by an outside vendor. The NS5A region of each of these genotypes included the first 11 amino acids of the protease recognition sequence of genotype 1b, as well as the last 10 amino acids of genotype 1b. The NS5A gene cassettes were excised with site specific restriction endonucleases and ligated into a ZS11-luciferase genotype 1b backbone (backbone contains the genotype 1b NS3 protease, NS4a, NS4b, and NS5b coding regions) with similarly cut restriction enzyme sites. Thus, the newly constructed plasmid contains a genotype 2a-, 3a- or 4a-specific NS5A gene within the 1b-replicon.
(§3) These new intergenotypic plasmids were used to establish stable cell lines. RNA was generated from the NS5A intergenotypic plasmids and used in conjunction with a lipofectin reagent to transfect a cured Huh7 cell line. Transfected cells were selected for with G418. After selection has occurred the stable cell lines were propagated, tested for luciferase activity, and RT-PCR with genotype specific primers (either 1a, 2a, 3a, or 4a). Stable cell lines containing the intergenotypic replicon were then fully sequenced and analyzed for proper expression of NS3, NS5A and NS5B proteins.
(§4) Drug titration analysis was performed using the luciferase replicon assay described herein.
as §1

In series [3] the test system is HCV genotype 3a NS5A within the 1b-replicon. The series can be described thus: Luciferase replicon assay, NS5A-intergenotypic stable cell line genotype 3a. In kind it is cell-based. To be noted: Hepatitis C virus, read-out: EC50 3a.
Source text: as §2, §3, §4, §1

In a further series the test system is H1a-luc or Zluc cells. The series can be described thus: in vitro. The format is cell-based, human. The conditions noted are these: Table 1B, cellular viability. On the procedure:
For cytotoxicity evaluation, HPC cells were treated with compounds as described above in the absence of the genotype 2a virus and cellular viability was monitored using the Cell Titer 96 AQueous One Solution Cell Proliferation Assay (Promega). Plates were then read at 490 nm in a Victor^3V 1420 multilabel counter (Perkin Elmer) and CC50 concentrations were determined using Microsoft Excel and XLfit 4.1 software.
For cytotoxicity evaluation, H1a-luc or Zluc cells were treated with compounds as described above and cellular viability was monitored using the Cell Titer 96 AQueous One Solution Cell Proliferation Assay (Promega). Plates were then read at 490 nm in a Victor^3V 1420 multilabel counter (Perkin Elmer) and CC50 concentrations were determined using Microsoft Excel and XLfit 4.1 software.

Series [4] concerns HCV genotype 1a H77 strain subgenomic luciferase replicon (H1a-luc). The series can be described thus: Luciferase replicon assay, genotype 1a. The format is cell-based. The conditions noted are these: Hepatitis C virus, read-out: EC50 1a. How it is done:
as §4, §1

For another series, the system named is HCV genotype 2a. The series can be described thus: Genotype 2a assay (NS5A-intergenotypic luciferase replicon / genotype 2a infectious virus assay). The format is cell-based. To be noted: Hepatitis C virus, read-out: EC50 2a.
Source text: as §2, §3, §4
The genotype 2a infectious virus assay measures the ability of a test compound to inhibit HCV replication in cell culture after 5 days of treatment at the time of HCV genotype 2a virus infection of a permissive human hepatoma cell line (HPC cells). The inhibition of HCV replication was measured by quantification of HCV core protein expression by an enzyme-linked immunosorbent assay (ELISA). Briefly, HPC cells were grown in DMEM containing glucose, L-glutamine and sodium pyruvate, 10% FBS, 100 IU/mL penicillin, 100 μg/mL streptomycin, 2 mM GlutaMAX, and non-essential amino acids. GlutaMAX was obtained from Invitrogen, Corp.; all other media reagents were obtained from Mediatech, Inc. For dose-response testing, ninety-six-well plates were seeded with HPC cells at a density of 2.5×10^3 cells/well in a volume of 50 μL, and incubated at 37° C./5% CO2. Three hours after plating, 50 μL of ten 5-fold serial dilutions of compound and 100 μL of genotype 2a virus were added, and cell cultures were incubated at 37° C./5% CO2. In all cases, mock infected HPC cells served as negative control. At 16 hours post treatment and infection, the virus inoculum was removed by aspiration. The cultures were treated at the same final concentrations of drug diluted in media and incubated for 4 additional days at 37° C./5% CO2. Subsequently, the core ELISA was performed as follows. The plates were fixed for 90 seconds with acetone/methanol (1:1, v/v), washed three times with KPL wash solution (KPL, Inc.), blocked for 1 hr at room temperature with TNE buffer containing 10% FBS and then incubated for 2 hr at 37° C. with the anti-HCV core mouse monoclonal antibody (Thermo Scientific) diluted in the same buffer. After washing three times with KPL wash solution, the cells were incubated for 1 hr at 37° C. with an anti-mouse immunoglobulin G-peroxidase conjugate in TNE/10% FBS. After washing as described above, the reaction was developed with O-phenylenediamine (Invitrogen). The reaction was stopped after 30 min with 2 NH2SO4, and absorbance was read at 490 nm in a Victor^3V 1420 multilabel counter (Perkin Elmer) and EC50 concentrations were determined using Microsoft Excel and XLfit 4.1 software.
The HCV luciferase replicon assay measures the ability of a test compound to inhibit HCV replication in cell culture after 3 days of treatment in a human hepatoma cell line (Huh-7) bearing an HCV replicon containing a luciferase-neomycin phosphotransferase fusion gene. […]

The next series can be described thus: in vitro. The format is cell-based. The conditions noted are these: human; GS4.1 cells, cellular viability. On the procedure:
For cytotoxicity evaluation, GS4.1 cells were treated with compounds as described above and cellular viability was monitored using the Cell Titer 96 AQeous One Solution Cell Proliferation Assay (Promega). CC50 values were determined from the % cytotoxicity versus concentration data with Tecan Magellan software as described above.

Series [5] concerns HCV Con1 subgenomic replicon (GS4.1 cells). The series can be described thus: HCV replicon assay (NS5A ELISA, 72 hrs). The format is cell-based. To be noted: Hepatitis C virus. How it is done: Huh-7 cells containing HCV Con1 subgenomic replicon (GS4.1 cells) were grown in Dulbecco's Modified Eagle Medium (DMEM) supplemented with 10% fetal bovine serum (FBS), 2 mM L-glutamine, 110 mg/L sodium pyruvate, 1× non-essential amino acids, 100 U/mL penicillin-streptomycin, and 0.5 mg/mL G418 (Invitrogen). For dose-response testing, the cells were seeded in 96-well plates at 7.5×10^3 cells/well in a volume of 50 μL, and incubated at 37° C./5% CO2. Three hours after plating, 50 μL often 2-fold serial dilutions of compounds (highest concentration, 75 μM) were added, and cell cultures were incubated at 37° C./5% CO2 in the presence of 0.5% DMSO. Alternatively, compounds were tested at a single concentration of 15 μM. In all cases, Huh-7 cells lacking the HCV replicon served as negative control. The cells were incubated in the presence of compounds for 72 hrs after which they were monitored for expression of the NS5A protein by enzyme-linked immunosorbent assay (ELISA). For this, the plates were then fixed for 1 min with acetone/methanol (1:1, v/v), washed twice with phosphate-buffered saline (PBS), 0.1% Tween 20, blocked for 1 hr at room temperature with TNE buffer containing 10% FBS and then incubated for 2 hr at 37° C. with the anti-NS5A mouse monoclonal antibody A-236 (ViroGen) diluted in the same buffer. After washing three times with PBS, 0.1% Tween 20, the cells were incubated 1 hr at 37° C. with anti-mouse immunoglobulin G-peroxidase conjugate in TNE, 10% FBS. After washing as described above, the reaction was developed with O-phenylenediamine (Zymed). The reaction was stopped after 30 min with 2 NH2SO4, and absorbance was read at 492 nm using Sunrise Tecan spectrophotometer. EC50 values were determined from the % inhibition versus concentration data using a sigmoidal non-linear regression analysis based on four parameters with Tecan Magellan software.

`COC(=O)N[C@H](C(=O)N1CCCC1c1nc(-c2cc3sc(-c4cnc([C@@H]5CCCN5C(=O)[C@@H](NC(=O)OC)C(C)C)[nH]4)cc3s2)c[nH]1)C(C)C` (stereo partly shown) [Compound A101]: the EC50 was less than 0.1 nM in series [1]; 1 to 10 nM in series [2]; 1 to 10 nM in series [3]; 10 to 100 nM in series [4]; 1 to 10 nM with HCV genotype 2a. The half-maximal cytotoxic concentration (CC50) with H1a-luc or Zluc cells is more than 75000 nM.

Regarding `COC(=O)N[C@H](C(=O)N1CCC[C@H]1c1ncc(-c2ccc(-c3cc4sc(-c5cnc([C@@H]6CCCN6C(=O)[C@@H](NC(=O)OC)C(C)C)[nH]5)cc4s3)cc2)[nH]1)C(C)C` [Compound A126, [(S)-1-((S)-2-{5-[4-(5-{2-[(S)-1-((S)-2-Methoxycarbonylamino-3-methyl-butyryl)-pyrrolidin-2-yl]-3H-imidazol-4-yl}-thieno[3,2-b]thiophen-2-yl)-phenyl]-1H-imidazol-2-yl}-pyrrolidine-1-carbonyl)-2-methyl-propyl]-carbamic acid methyl ester], the EC50 in series [1] is less than 0.1 nM; in series [3], 1 to 10 nM; in series [4], less than 0.1 nM; in series [5], less than 1 nM. In addition, the CC50 in the series “in vitro” and with H1a-luc or Zluc cells was more than 75000 nM in each case.

Take `COC(=O)N[C@H](C(=O)N1CCC[C@H]1c1ncc(-c2ccc(-c3csc4c(-c5ccc6[nH]c([C@@H]7CCCN7C(=O)[C@@H](NC(=O)OC)C(C)C)nc6c5)csc34)cc2)[nH]1)C(C)C` [Compound A171, [(S)-1-((S)-2-{4-[4-(6-{2-[(S)-1-((S)-2-methoxycarbonylamino-3-methyl-butyryl)-pyrrolidin-2-yl]-3H-benzoimidazol-5-yl}-thieno[3,2-b]thiophen-3-yl)-phenyl]-1H-imidazol-2-yl}-pyrrolidine-1-carbonyl)-2-methyl-propyl]-carbamic acid methyl ester]: the EC50 in series [1] is less than 0.1 nM; in series [3], 1 to 10 nM; in series [4] it was less than 0.1 nM. This compound also yielded a CC50 in the series with H1a-luc or Zluc cells of more than 75000 nM.

As to `COC(=O)N[C@H](C(=O)N1CCC[C@H]1c1ncc(-c2ccc(-c3csc4c(-c5cnc([C@@H]6CCCN6C(=O)[C@H](NC(=O)OC)c6ccccc6)[nH]5)csc34)cc2)[nH]1)C(C)C` [Compound A200, [(S)-1-((S)-2-{4-[4-(6-{2-[(S)-1-((R)-2-methoxycarbonylamino-2-phenyl-acetyl)-pyrrolidin-2-yl]-3H-imidazol-4-yl}-thieno[3,2-b]thiophen-3-yl)-phenyl]-1H-imidazol-2-yl}-pyrrolidine-1-carbonyl)-2-methyl-propyl]-carbamic acid methyl ester], the figures for the EC50 in series [1] and in series [4] were less than 0.1 nM and 0.1 to 1 nM, respectively. Also, in the series with H1a-luc or Zluc cells, the CC50 was more than 75000 nM.

For `COC(=O)N[C@H](C(=O)N1CCCC1c1nc(-c2cc3sc(-c4ccc(-c5cnc([C@@H]6CCCN6C(=O)[C@@H](c6ccccc6)N6CCCCC6)[nH]5)cc4)cc3o2)c[nH]1)C(C)C` (stereo partly shown) [Compound A212], the EC50 in series [1] and in series [4] was less than 0.1 nM each time. This compound had a CC50 in the series on H1a-luc or Zluc cells of 10000 to 75000 nM.

Consider `COC(=O)N[C@H](C(=O)N1CCC[C@H]1c1nc2ccc(-c3cc4sc(-c5ccc(-c6c[nH]c([C@@H]7CCCN7C(=O)[C@H](NC(=O)OC)c7ccccc7)n6)cc5)cc4s3)cc2[nH]1)C(C)C` [Compound A215, [(S)-1-((S)-2-{6-[5-(4-{(S)-2-[1-((R)-2-methoxycarbonylamino-2-phenyl-acetyl)-pyrrolidin-2-yl]-1H-imidazol-4-yl}-phenyl)-thieno[3,2-b]thiophen-2-yl)-1H-benzoimidazol-2-yl}-pyrrolidine-1-carbonyl)-2-methyl-propyl]-carbamic acid methyl ester], for which the EC50 in series [1] and in series [4] was less than 0.1 nM throughout. This compound also came in with a CC50 with H1a-luc or Zluc cells of more than 75000 nM.

As for `COC(=O)N[C@H](C(=O)N1CCCC1c1ncc(-c2cc3sc(-c4ccc(-c5cnc([C@@H]6CCCN6C(=O)[C@H](NC(=O)OC)c6ccccc6)[nH]5)cc4)cc3s2)[nH]1)C(C)C` (stereo partly shown) [Compound A217], the EC50 in series [1] and in series [4] was less than 0.1 nM each time. The compound also came in with a CC50 with H1a-luc or Zluc cells of more than 75000 nM.

By EC50 is commonly meant the concentration needed to bring the measured effect to its halfway point. The CC50 is the concentration giving 50% cytotoxicity. A high value points to better tolerance by the cells.

The record behind these values is patent US20120252721A1 (priority 2011, published 2012).
